Measured values reported in US5278308A, “Iodine derivatives of tetrabenazine” (The Trustees of The University of Pennsylvania, priority 1992, dated 1994).
Where two headings read alike, the source gives them in different places.

How the values were obtained:
[1] = Biodistribution in rats (iv injection); assay type: in vivo; conditions: rat; for Blood uptake (blood assumed 7% of body weight) / Heart uptake / Kidney uptake / Liver uptake / Lung uptake / Muscle uptake (muscle assumed 40% of body weight) / Skin uptake / Spleen uptake / Thyroid uptake / Brain uptake: iv
Procedure: While under ether anesthesia, each rat was injected in the femoral vein with 0.2 mL saline solution containing [^123 I]I-TBZ (1-5uCi) either racemic mixture, peak-A or peak-B. The rats were sacrificed at various time points postinjection by cardiac excision. The tissues were weighed and the radioactivity was measured with a Canberra gamma counter (Model 5000). The percent dose per organ was calculated by a comparison of the tissue counts to suitably diluted aliquots of the injected material. Total activities of blood and muscle were calculated assuming that they were 7% and 40% of total body weight, respectively Results are presented in Tables 3, 4A and 4B.

[2] = Regional brain distribution in rats (dissection, iv injection); assay type: in vivo; conditions: for Regional brain uptake, cerebellum / Regional brain uptake, cortex / Regional brain uptake, hippocampus / Regional brain uptake, striatum / tissue uptake at 2 min / tissue uptake at 0.5 h / tissue uptake at 4 h / tissue uptake at 6 h / tissue uptake at 16 h: rat; for tissue uptake at 0.5 h: 30 min; for tissue uptake at 4 h: 240 min; for tissue uptake at 6 h: 2 rats only
Procedure: Regional brain distribution of [^123 I]I-TBZ (with either a racemic mixture, peak A or B) in rats was obtained after an iv injection. By dissecting, weighing and counting samples from different brain regions (cortex, striatum, hippocampus and cerebellum), % dose/gram of the samples was calculated by comparing the sample counts with the counts of the diluted initial dose. The ratio of uptake in each region was obtained by dividing % dose/gram of each region with that of the cerebellum. The effect of tetrahydrobenazine on the uptake of peak A or peak B was investigated by pretreating the rats with the TBZ 3 mg/rat at 3 min before iv injection of [^123 I]I-TBZ. At 20 min. post injection the rats were dissected and the regional brain dissection was carried out as above.

[3] = Stability of radiolabeled compound at room temperature; assay type: physicochemical
Procedure: The […] labeled iodovinYl-TBZ derivative ([^123 I]-TBZ, 2b) was prepared by an iododestannylation reaction. Aqueous hydrogen peroxide (1 mg/mL EtOH), 200 uL of 0.1 N HCl and 5 mCi [^123 I]sodium iodide were combined in a sealed vial. The reaction was allowed to proceed at room temperature for 20 min, after which it was terminated by addition of 0.1 mL sodium bisulfite (300 mg/ml). The reaction was then neutralized with NaHCO3 and extracted with ethyl acetate (3×1 mL). The combined organic layers were dried under nitrogen and the desired product was purified through HPLC on a reverse phase column (PRP-1, Hamilton) eluting with a isocratic solvent of 90% acetonitrile-10% buffer (5 mM 3,3'-dimethylglutaric acid, pH 7.0) and a flow rate of 1 mL/min. The radiochemical purity was analyzed by the above chromatographic system and the purified [^123 I] product (yield 50%, purity >98%) was obtained for animal experiments. The radiolabeled [^123 I]I-TBZ is stable at room temperature for up to 15 h.

[4] = system: monoamine transporter of chromaffin granules and CNS synaptic vesicles; conditions: cited from earlier work
[5] = system: monoamine uptake-storage mechanism of amine granules in the synapse; conditions: in vivo; cited from earlier work
[6] = cerebellum, read-out: Regional brain uptake, cerebellum
[7] = cortex, read-out: Regional brain uptake, cortex
[8] = hippocampus, read-out: Regional brain uptake, hippocampus
[9] = striatum, read-out: Regional brain uptake, striatum

For COc1cc2c(cc1OC)C1CC(O)(C=C[123I])C(CC(C)C)CN1CC2 (racemic) [Compound 2b], the “Crossing of the intact blood brain barrier and localization in the brain (in words)” value [1] was “can cross the intact blood brain barrier and localize in the brain”, the “Blood uptake (blood assumed 7% of body weight)” value ([1]; 2 min) was 5.99 ± 2.54 % Dose/organ and the Heart uptake ([1]; 2 min) was 1.33 ± 0.19 % Dose/organ. The Kidney uptake ([1]; 2 min) was 4.18 ± 0.46 % Dose/organ, the Liver uptake ([1]; 2 min) was 11.1 ± 1.22 % Dose/organ and the Lung uptake ([1]; 2 min) was 4.44 ± 1.44 % Dose/organ. The “Muscle uptake (muscle assumed 40% of body weight)” value ([1]; 2 min) was 6.93 ± 0.12 % Dose/organ, the Skin uptake ([1]; 2 min) was 4.08 ± 2.32 % Dose/organ and the Spleen uptake ([1]; 2 min) was 0.28 ± 0.04 % Dose/organ. For the same compound, the Thyroid uptake ([1]; 2 min) was 0.06 ± 0.02 % Dose/organ, the Brain uptake ([1]; 2 min, listed as [^123 I]I-TBZ (2b)) was 0.92 % Dose/organ and the Brain uptake ([1]; 2 min, listed as [^123 I]I-TBZ racemic mixture) was 0.92 ± 0.13 % Dose/organ. The “Blood uptake (blood assumed 7% of body weight)” value ([1]; 30 min) was 1.84 ± 0.17 % Dose/organ, the Heart uptake ([1]; 30 min) was 0.34 ± 0.02 % Dose/organ and the Kidney uptake ([1]; 30 min) was 1.55 ± 0.21 % Dose/organ. The Liver uptake ([1]; 30 min) was 9.75 ± 1.83 % Dose/organ, the Lung uptake ([1]; 30 min) was 1.02 ± 0.14 % Dose/organ and the “Muscle uptake (muscle assumed 40% of body weight)” value ([1]; 30 min) was 20.18 ± 2.19 % Dose/organ. It also gave a Skin uptake ([1]; 30 min) of 11.53 ± 2.54 % Dose/organ, a Spleen uptake ([1]; 30 min) of 0.29 ± 0.03 % Dose/organ and a Thyroid uptake ([1]; 30 min) of 0.03 ± 0.005 % Dose/organ. For the same compound, the Brain uptake ([1]; 30 min, listed as [^123 I]I-TBZ (2b)) was 0.36 % Dose/organ, the Brain uptake ([1]; 30 min, listed as [^123 I]I-TBZ racemic mixture) was 0.36 ± 0.05 % Dose/organ and the “Blood uptake (blood assumed 7% of body weight)” value ([1]; 60 min) was 2.46 ± 0.56 % Dose/organ. The Brain uptake ([1]; 60 min) was 0.28 ± 0.05 % Dose/organ, the Heart uptake ([1]; 60 min) was 0.35 ± 0.06 % Dose/organ and the Kidney uptake ([1]; 60 min) was 1.47 ± 0.22 % Dose/organ. For the same compound, the Liver uptake ([1]; 60 min) was 8.57 ± 0.41 % Dose/organ, the Lung uptake ([1]; 60 min) was 1.47 ± 0.64 % Dose/organ and the “Muscle uptake (muscle assumed 40% of body weight)” value ([1]; 60 min) was 14.9 ± 1.77 % Dose/organ. The Skin uptake ([1]; 60 min) was 6.39 ± 2.37 % Dose/organ, the Spleen uptake ([1]; 60 min) was 0.37 ± 0.10 % Dose/organ and the Thyroid uptake ([1]; 60 min) was 0.05 ± 0.002 % Dose/organ. For the same compound, the “Blood uptake (blood assumed 7% of body weight)” value ([1]; 120 min) was 2.16 ± 0.21 % Dose/organ, the Brain uptake ([1]; 120 min) was 0.16 ± 0.03 % Dose/organ and the Heart uptake ([1]; 120 min) was 0.24 ± 0.06 % Dose/organ. For the same compound, the Kidney uptake ([1]; 120 min) was 0.97 ± 0.13 % Dose/organ, the Liver uptake ([1]; 120 min) was 6.71 ± 0.84 % Dose/organ and the Lung uptake ([1]; 120 min) was 0.78 ± 0.43 % Dose/organ. For the same compound, the “Muscle uptake (muscle assumed 40% of body weight)” value ([1]; 120 min) was 15.4 ± 4.17 % Dose/organ, the Skin uptake ([1]; 120 min) was 7.05 ± 1.52 % Dose/organ and the Spleen uptake ([1]; 120 min) was 0.20 ± 0.06 % Dose/organ. For the same compound, the Thyroid uptake ([1]; 120 min) was 0.08 ± 0.05 % Dose/organ, the “Blood uptake (blood assumed 7% of body weight)” value ([1]; 240 min) was 1.82 ± 0.26 % Dose/organ and the Brain uptake ([1]; 240 min) was 0.13 ± 0.04 % Dose/organ. For the same compound, the Heart uptake ([1]; 240 min) was 0.18 ± 0.03 % Dose/organ, the Kidney uptake ([1]; 240 min) was 0.73 ± 0.13 % Dose/organ and the Liver uptake ([1]; 240 min) was 4.57 ± 0.69 % Dose/organ. The Lung uptake ([1]; 240 min) was 0.54 ± 0.09 % Dose/organ, the “Muscle uptake (muscle assumed 40% of body weight)” value ([1]; 240 min) was 11.24 ± 2.57 % Dose/organ and the Skin uptake ([1]; 240 min) was 4.21 ± 0.25 % Dose/organ. The Spleen uptake ([1]; 240 min) was 0.18 ± 0.02 % Dose/organ, the Thyroid uptake ([1]; 240 min) was 0.15 ± 0.18 % Dose/organ and the “Blood uptake (blood assumed 7% of body weight)” value ([1]; 6 hr, 2 rats only) was 1.58 ± 0.15 % Dose/organ. For the same compound, the Brain uptake ([1]; 6 hr, 2 rats only) was 0.05 ± 0.001 % Dose/organ, the Heart uptake ([1]; 6 hr, 2 rats only) was 0.11 ± 0.01 % Dose/organ and the Kidney uptake ([1]; 6 hr, 2 rats only) was 0.45 ± 0.03 % Dose/organ. For the same compound, the Liver uptake ([1]; 6 hr, 2 rats only) was 3.21 ± 0.28 % Dose/organ, the Lung uptake ([1]; 6 hr, 2 rats only) was 0.36 % Dose/organ and the “Muscle uptake (muscle assumed 40% of body weight)” value ([1]; 6 hr, 2 rats only) was 6.94 ± 0.93 % Dose/organ. For the same compound, the Skin uptake ([1]; 6 hr, 2 rats only) was 4.15 ± 0.63 % Dose/organ, the Spleen uptake ([1]; 6 hr, 2 rats only) was 0.11 ± 0.004 % Dose/organ and the Thyroid uptake ([1]; 6 hr, 2 rats only) was 0.42 ± 0.15 % Dose/organ. The “Blood uptake (blood assumed 7% of body weight)” value ([1]; 16 hr) was 0.42 ± 0.07 % Dose/organ, the Brain uptake ([1]; 16 hr) was 0.008 ± 0.001 % Dose/organ and the Heart uptake ([1]; 16 hr) was 0.02 ± 0.003 % Dose/organ. For the same compound, the Kidney uptake ([1]; 16 hr) was 0.12 ± 0.015 % Dose/organ, the Liver uptake ([1]; 16 hr) was 1.32 ± 0.096 % Dose/organ and the Lung uptake ([1]; 16 hr) was 0.07 ± 0.006 % Dose/organ. The “Muscle uptake (muscle assumed 40% of body weight)” value ([1]; 16 hr) was 1.49 ± 0.23 % Dose/organ, the Skin uptake ([1]; 16 hr) was 2.04 ± 0.18 % Dose/organ and the Spleen uptake ([1]; 16 hr) was 0.02 ± 0.002 % Dose/organ. For the same compound, the Thyroid uptake ([1]; 16 hr) was 0.009 ± 0.004 % Dose/organ, the “Regional distribution / selectivity in rat brain (in words)” value ([2]; listed as [^123 I]-2b) was “did not exhibit any selectivity” and the “Regional distribution / selectivity in rat brain (in words)” value ([2]; listed as [^123 I]I-TBZ (2b)) was “exhibits no regional selectivity”. The “Regional brain uptake, cerebellum” value ([2]; 60 min) was 0.14 ± 0.04 % Dose/g, the “Regional brain uptake, cortex” value ([2]; 60 min) was 0.14 ± 0.04 % Dose/g and the “Regional brain uptake, hippocampus” value ([2]; 60 min) was 0.14 ± 0.02 % Dose/g. For the same compound, the “Regional brain uptake, striatum” value ([2]; 60 min) was 0.15 ± 0.03 % Dose/g, the “Regional brain uptake, cerebellum” value ([2]; 120 min) was 0.14 ± 0.003 % Dose/g and the “Regional brain uptake, cortex” value ([2]; 120 min) was 0.15 ± 0.09 % Dose/g. For the same compound, the “Regional brain uptake, hippocampus” value ([2]; 120 min) was 0.12 ± 0.04 % Dose/g, the “Regional brain uptake, striatum” value ([2]; 120 min) was 0.12 ± 0.04 % Dose/g and the tissue uptake at 2 min [2, 6] was 0.5 ± 0.13 %ID/g. For the same compound, the tissue uptake at 0.5 h [2, 6] was 0.17 ± 0.03 %ID/g, the tissue uptake at 4 h [2, 6] was 0.051 ± 0.014 %ID/g and the tissue uptake at 6 h [2, 6] was 0.025 ± 0.0002 %ID/g. It also gave a tissue uptake at 16 h [2, 6] of 0.0063 ± 0.001 %ID/g, a tissue uptake at 2 min [2, 7] of 0.55 ± 0.24 %ID/g and a tissue uptake at 0.5 h [2, 7] of 0.2 ± 0.02 %ID/g. For the same compound, the tissue uptake at 4 h [2, 7] was 0.052 ± 0.021 %ID/g, the tissue uptake at 6 h [2, 7] was 0.022 %ID/g and the tissue uptake at 16 h [2, 7] was 0.0061 ± 0.0013 %ID/g. It also gave a tissue uptake at 2 min [2, 8] of 0.58 ± 0.16 %ID/g, a tissue uptake at 0.5 h [2, 8] of 0.21 ± 0.02 %ID/g and a tissue uptake at 4 h [2, 8] of 0.048 ± 0.015 %ID/g. The tissue uptake at 6 h [2, 8] was 0.028 ± 0.0064 %ID/g, the tissue uptake at 16 h [2, 8] was 0.0051 ± 0.002 %ID/g and the tissue uptake at 2 min [2, 9] was 0.54 ± 0.21 %ID/g. The tissue uptake at 0.5 h [2, 9] was 0.21 ± 0.006 %ID/g, the tissue uptake at 4 h [2, 9] was 0.056 ± 0.014 %ID/g and the tissue uptake at 6 h [2, 9] was 0.024 ± 0.0029 %ID/g. The tissue uptake at 16 h [2, 9] was 0.0062 ± 0.0026 %ID/g and the “Stable at room temperature for up to” value [3] was “up to 15 h”.
In the case of COc1cc2c(cc1OC)C1CC(OC(C)=O)C(CC(C)C)CN1CC2 (stereo not shown) [acetyl derivative of dihydro-TBZ], the “binding affinity for the transporter (in words)” value [4] is listed as “retain high affinity”.
For COC(=O)[C@H]1[C@H]2C[C@@H]3c4[nH]c5cc(OC)ccc5c4CCN3C[C@H]2C[C@@H](OC(=O)c2cc(OC)c(OC)c(OC)c2)[C@@H]1OC [Reserpine], the “Irreversible damage to storage mechanism / neurons (in words)” value [5] is given as “the storage mechanism is irreversibly damaged”.
